ChEMBL document CHEMBL4480398, “1,2,4-Triazolo[1,5-a]pyrimidines in drug design” (Eur J Med Chem, 2019)
Values after ≈ are worked out from the molar mass of the structure shown.

Tests used:
[1] = Oral bioavailability in mouse at 20 mg/kg administered as single dose; type: ADME, organism-based; conditions: in vivo
Trypanosoma brucei = assay: Antitrypanosomal activity against Trypanosoma brucei Lister 427 bloodstream form after 48 hrs by CellTiter-Glo luminescent cell viability assay; type: functional, organism-based; conditions: Lister 427, 48 h
[2] = target: Fatty acid-binding protein, adipocyte (Homo sapiens, UniProt P15090); assay: Binding affinity to recombinant FABP4 (unknown origin) expressed in Escherichia coli by sypro orange dye-based TdF assay
Fatty acid-binding protein, adipocyte, sequence (P15090 whole entry): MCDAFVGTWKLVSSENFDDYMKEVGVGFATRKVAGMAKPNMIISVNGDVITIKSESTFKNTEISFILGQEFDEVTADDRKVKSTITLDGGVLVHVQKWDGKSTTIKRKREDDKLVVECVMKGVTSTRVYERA

[3] = Intrinsic clearance in mouse liver microsomes assessed per mg protein by LC-MS analysis; type: ADME, Microsome; conditions: read-out: CLH
[4] = Intrinsic clearance in human liver microsomes assessed per mg protein by LC-MS analysis; type: ADME, Microsome; conditions: read-out: CLH
[5] = Protein binding in human plasma by ultracentrifugation method; type: ADME, cell-free
[6] = Aqueous solubility of compound; type: physicochemical; conditions: buffer
[7] = Inhibition of Plasmodium falciparum DHODH expressed in Escherichia coli by DCIP staining-based spectrophotometric analysis
[8] = target: Dihydroorotate dehydrogenase (quinone), mitochondrial (Homo sapiens, UniProt Q02127); assay: Inhibition of human DHODH expressed in Escherichia coli by DCIP staining-based spectrophotometric analysis
Dihydroorotate dehydrogenase (quinone), mitochondrial, sequence (Q02127 whole entry): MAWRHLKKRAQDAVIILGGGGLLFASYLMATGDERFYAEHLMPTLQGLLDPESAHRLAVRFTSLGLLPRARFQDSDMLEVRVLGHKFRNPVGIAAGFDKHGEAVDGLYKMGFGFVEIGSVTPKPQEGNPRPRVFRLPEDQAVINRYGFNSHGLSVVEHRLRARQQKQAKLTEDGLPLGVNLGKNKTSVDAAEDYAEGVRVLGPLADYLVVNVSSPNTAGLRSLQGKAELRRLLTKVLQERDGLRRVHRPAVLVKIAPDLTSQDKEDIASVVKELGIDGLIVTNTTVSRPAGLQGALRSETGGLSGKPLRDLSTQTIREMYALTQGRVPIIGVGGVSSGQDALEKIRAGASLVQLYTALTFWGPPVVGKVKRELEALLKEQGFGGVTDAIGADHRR

[9] = Lipophilicity, log D of the compound at pH 7.4 by shake flask method; type: physicochemical; conditions: buffer
[10] = Cytotoxicity against mouse NIH/3T3 cells after 5 days by CellTiter-Glo luminescent cell viability assay; type: cell-based, NIH3T3
Leishmania donovani = assay: Antileishmanial activity against Leishmania donovani MHOM/SD/62/1S-CL2D axenic amastigote after 48 hrs by CellTiter-Glo luminescent cell viability assay; type: functional, organism-based
[11] = Cytotoxicity against mouse primary peritoneal macrophages; type: cell-based, Peritoneal macrophage
Trypanosoma cruzi = assay: Antitrypanosomal activity against Trypanosoma cruzi Tulahuen amastigotes expressing beta-galactosidase infected in mouse NIH3T3 cells after 6 days; type: functional, organism-based; conditions: NIH3T3, 144 h
[12] = Dissociation constant, pKa of compound; type: physicochemical

Question: For `Cc1nc(C)c(C(=O)Nc2ccc(F)c(-c3nc4ncc(-c5ccccn5)cn4n3)c2)o1`, which bioavailability [1] is on record?
Answer: < 34%

Question: What about the EC50 (Trypanosoma brucei) of the same molecule?
Answer: 70 nM

Question: Which Kd [2] does the source give for `COc1ccc(Cl)cc1NCc1cc(=O)n2nc(-c3ccccc3)nc2[nH]1` here?
Answer: 860 nM

Question: With `O=c1cc(CNc2cccc(Cl)c2C2CC2)[nH]c2nc(-c3ccccc3)nn12` as the molecule, how does the Kd [2] read?
Answer: 20 nM

Question: For `Cc1cc(Nc2ccc(S(F)(F)(F)(F)F)cc2)n2nc(C(C)(F)F)nc2n1` [DSM-265], which microsomal CLint [3] is on record?
Answer: 10.1 µL/min/mg

Question: What about the microsomal CLint [4] of the same molecule?
Answer: < 5 µL/min/mg

Question: And the PPB [5]?
Answer: 90.4%

Question: What about the solubility [6] of the same molecule?
Answer: 70 to 140 µM (≈ 29.1 to 58.1 µg/mL)

Question: What about the IC50 [7] of the same molecule?
Answer: 33 nM

Question: For `Cc1cc(Nc2ccc(C(F)(F)F)nc2)n2nc(C(C)(F)F)nc2n1`, which microsomal CLint [3] is on record?
Answer: 5.1 µL/min/mg

Question: And the fraction unbound ([5]; read-out: PPB)?
Answer: 0.5

Question: And the solubility [6]?
Answer: > 100 µM

Question: And the IC50 [8]?
Answer: > 100000 nM

Question: And the logD [9]?
Answer: 2.5

Question: And the IC50 [7]?
Answer: 14 nM

Question: Which results are given for `Cc1cc(Nc2ccc3ccccc3c2)n2ncnc2n1`?
Answer: solubility [6]: 45 to 90 µM (≈ 12.4 to 24.8 µg/mL); IC50 [8]: > 200000 nM

Question: For `Cc1cc(Nc2cc(F)c(C(F)(F)F)c(F)c2)n2ncnc2n1`, which microsomal CLint [3] is on record?
Answer: < 6 µL/min/mg

Question: What about the microsomal CLint [4] of the same molecule?
Answer: < 5 µL/min/mg

Question: What about the solubility [6] of the same molecule?
Answer: 9 to 18 µM (≈ 2.96 to 5.93 µg/mL)

Question: And the IC50 [8]?
Answer: > 30000 nM

Question: And the IC50 [7]?
Answer: 190 nM

Question: What does the source list for `CC(C)OC(=O)Nc1cnc2nc(-c3cc(NC(=O)c4ccco4)ccc3Cl)nn2c1`?
Answer: CC50 at 120 h [10]: 9000 nM; EC50 (Leishmania donovani): 350 nM; CC50 [11]: 14000 nM; EC50 (Trypanosoma brucei): 79 nM; EC50 (Trypanosoma cruzi): 55 nM

Question: For `O=C(Nc1ccc(Cl)c(-c2nc3ncccc3o2)c1)c1ccco1`, which EC50 (Leishmania donovani) is on record?
Answer: 7300 nM

Question: And the CC50 [11]?
Answer: > 50000 nM

Question: What about the EC50 (Trypanosoma brucei) of the same molecule?
Answer: 150000 nM

Question: What about the EC50 (Trypanosoma cruzi) of the same molecule?
Answer: 75 nM

Question: What does the source list for `Cc1c(Cl)cccc1NCc1cc(=O)n2nc(-c3ccccc3)nc2[nH]1`?
Answer: pKa [12]: 4.6; Kd [2]: 10 nM

Question: Which bioavailability [1] does the source give for `Cc1nc(C)c(C(=O)Nc2ccc(F)c(-c3nc4ncc(-c5ccccc5)cn4n3)c2)o1` here?
Answer: < 34%

Question: And the EC50 (Leishmania donovani)?
Answer: 71 nM

Question: What about the EC50 (Trypanosoma brucei) of the same molecule?
Answer: 22 nM

Question: What about the EC50 (Trypanosoma cruzi) of the same molecule?
Answer: 16 nM
